Laboratory results as given in PubChem BioAssay AID330 (DTP/NCI, 2004).
“And” between values parts separate entries of the source, which are not always exact repeats. Identical values can stand only once. Inconclusive results and toxic doses are left out. Peptide text beside a SMILES is read from it.

System: P388 leukemia ip, CD2F1 mice, survival T/C
Assay: NCI In Vivo Anticancer Drug Screen. Data for tumor model P388 Leukemia (intraperitoneal) in CD2F1 (CDF1) mice
Conditions: endpoint: median survival time, higher = longer survival
In short: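 Mice carrying the transplanted tumor received test compound or vehicle. Survival was recorded in each group, and the value is the treated-group measurement divided by that of the vehicle-treated control group.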

[1] = dose: 100.0 mg/kg/injection, schedule: Q01DX009 (ip), vehicle: saline with Tween-80
[2] = dose: 50.0 mg/kg/injection, schedule: Q01DX005 (ip), vehicle: Klucel (hydroxypropylcellulose) (HPC)
[3] = dose: 100.0 mg/kg/injection, schedule: Q01DX005 (ip), vehicle: Klucel (hydroxypropylcellulose) (HPC)
[4] = dose: 50.0 mg/kg/injection, schedule: Q01DX009 (ip), vehicle: saline
[5] = dose: 100.0 mg/kg/injection, schedule: Q01DX009 (ip), vehicle: saline
[6] = dose: 200.0 mg/kg/injection, schedule: Q01DX009 (ip), vehicle: saline
[7] = dose: 50.0 mg/kg/injection, schedule: Q04DX003 (ip), vehicle: saline with Tween-80
[8] = dose: 100.0 mg/kg/injection, schedule: Q04DX003 (ip), vehicle: saline with Tween-80
[9] = dose: 200.0 mg/kg/injection, schedule: Q04DX003 (ip), vehicle: saline with Tween-80
[10] = dose: 60.0 mg/kg/injection, schedule: Q01DX005 (ip), vehicle: saline with Tween-80
[11] = dose: 120.0 mg/kg/injection, schedule: Q01DX005 (ip), vehicle: saline with Tween-80
[12] = dose: 240.0 mg/kg/injection, schedule: Q01DX005 (ip), vehicle: saline with Tween-80
[13] = dose: 400.0 mg/kg/injection, schedule: Q04DX003 (ip), vehicle: saline with Tween-80
[14] = dose: 50.0 mg/kg/injection, schedule: Q01DX009 (ip), vehicle: saline with Tween-80

## CN(C)C(=O)c1cccc(COc2ccc(N)cc2Cl)c1
[1]
  T/C: 95 % of control
dose: 200.0 mg/kg/injection, schedule: Q01DX009 (ip), vehicle: saline with Tween-80
  T/C: 90 % of control
dose: 400.0 mg/kg/injection, schedule: Q01DX009 (ip), vehicle: saline with Tween-80
  T/C: 95 % of control

## [Br][Sn]([CH2]CC[CH2][Sn]([Br])([c]1ccccc1)[c]1ccccc1)([c]1ccccc1)[c]1ccccc1
[2]
  T/C: 93 % of control
[3]
  T/C: 100 % of control

## COc1ccccc1N1C(=O)CSC1=Nc1ccccc1
[4]
  T/C: 98 % of control
[5]
  T/C: 96 % of control
[6]
  T/C: 100 % of control

## [O-]c1n[n+](Cc2ccc(Br)cc2)no1
dose: 50.0 mg/kg/injection, schedule: Q04DX003 (ip), vehicle: Klucel (hydroxypropylcellulose) (HPC)
  T/C: 96 % of control
dose: 100.0 mg/kg/injection, schedule: Q04DX003 (ip), vehicle: Klucel (hydroxypropylcellulose) (HPC)
  T/C: 100 % of control
dose: 200.0 mg/kg/injection, schedule: Q04DX003 (ip), vehicle: Klucel (hydroxypropylcellulose) (HPC)
  T/C: 110 % of control

## O=C(CCN1CCOCC1)c1ccccc1
dose: 12.5 mg/kg/injection, schedule: Q01DX009 (ip), vehicle: saline
  T/C: 100 % of control
dose: 25.0 mg/kg/injection, schedule: Q01DX009 (ip), vehicle: saline
  T/C: 101 % of control
[4]
  T/C: 100 % of control
[5]
  T/C: 104 % of control
[6]
  T/C: 103 % of control

## O=C1C=C2C=CC3CC2(O1)C1CCCCN31 (stereo not given)
dose: 6.25 mg/kg/injection, schedule: Q04DX002 (ip), vehicle: saline with Tween-80
  T/C: 113 % of control
dose: 10.0 mg/kg/injection, schedule: Q01DX010 (ip), vehicle: saline
  T/C: 90 % of control
dose: 12.5 mg/kg/injection, schedule: Q04DX002 (ip), vehicle: saline with Tween-80
  T/C: 106 % of control
dose: 20.0 mg/kg/injection, schedule: Q01DX010 (ip), vehicle: saline
  T/C: 90 % of control
dose: 25.0 mg/kg/injection, schedule: Q01DX010 (ip), vehicle: saline
  T/C: 90 % of control and 110 % of control
dose: 25.0 mg/kg/injection, schedule: Q04DX002 (ip), vehicle: saline with Tween-80
  T/C: 106 % of control
dose: 50.0 mg/kg/injection, schedule: Q01DX010 (ip), vehicle: saline
  T/C: 100 % of control and 110 % of control
dose: 100.0 mg/kg/injection, schedule: Q01DX010 (ip), vehicle: saline
  T/C: 100 % of control and 120 % of control

## CCOc1ccc(Cc2nc3c([nH]2)c(=O)n(C)c(=O)n3C)cc1OCC
[7]
  T/C: 104 % of control
[8]
  T/C: 103 % of control
[9]
  T/C: 113 % of control and 95 % of control

## O=C(Nc1cccc(Cl)c1)Oc1cccnc1
[10]
  T/C: 99 % of control
[11]
  T/C: 88 % of control
[12]
  T/C: 89 % of control

## CCn1c2ccc(N)cc2c2c3ncc4cccn4c3ccc21
[10]
  T/C: 88 % of control
[11]
  T/C: 87 % of control

## O=C(CCC(=O)Nc1ccccc1[N+](=O)[O-])CC(=O)c1ccc(Br)cc1
[10]
  T/C: 105 % of control
[11]
  T/C: 106 % of control
[12]
  T/C: 106 % of control

## CCCCOP(=S)(N1CC1)N1CC1
dose: 6.25 mg/kg/injection, schedule: Q04DX003 (ip), vehicle: saline with Tween-80
  T/C: 154 % of control
dose: 12.5 mg/kg/injection, schedule: Q04DX003 (ip), vehicle: saline with Tween-80
  T/C: 195 % of control
dose: 25.0 mg/kg/injection, schedule: Q04DX003 (ip), vehicle: saline with Tween-80
  T/C: 236 % of control
dose: 44.0 mg/kg/injection, schedule: Q04DX003 (ip), vehicle: saline with Tween-80
  T/C: 204 % of control
[7]
  T/C: 259 % of control
dose: 66.0 mg/kg/injection, schedule: Q04DX003 (ip), vehicle: saline with Tween-80
  T/C: 200 % of control
[8]
  T/C: 179 % of control
dose: 150.0 mg/kg/injection, schedule: Q04DX003 (ip), vehicle: saline with Tween-80
  T/C: 100 % of control

## Cc1c/c(=N\O)c2c(=O)ccoc2n1O
dose: 50.0 mg/kg/injection, schedule: Q01DX009 (ip), vehicle: suspension in saline
  T/C: 99 % of control
dose: 100.0 mg/kg/injection, schedule: Q01DX009 (ip), vehicle: suspension in saline
  T/C: 98 % of control
dose: 200.0 mg/kg/injection, schedule: Q01DX009 (ip), vehicle: suspension in saline
  T/C: 97 % of control

## CSc1ncc(C=O)n1Cc1ccccc1
dose: 17.5 mg/kg/injection, schedule: Q01DX005 (ip), vehicle: Klucel (hydroxypropylcellulose) (HPC)
  T/C: 115 % of control
dose: 35.0 mg/kg/injection, schedule: Q01DX005 (ip), vehicle: Klucel (hydroxypropylcellulose) (HPC)
  T/C: 98 % of control
dose: 70.0 mg/kg/injection, schedule: Q01DX005 (ip), vehicle: Klucel (hydroxypropylcellulose) (HPC)
  T/C: 101 % of control

## O=S1(=O)C2CCCCC2C2CCCCC21 (stereo not given)
dose: 100.0 mg/kg/injection, schedule: Q01DX001 (ip), vehicle: saline with Tween-80
  T/C: 108 % of control
dose: 200.0 mg/kg/injection, schedule: Q01DX001 (ip), vehicle: saline with Tween-80
  T/C: 106 % of control
dose: 400.0 mg/kg/injection, schedule: Q01DX001 (ip), vehicle: saline with Tween-80
  T/C: 113 % of control

## [N-]=[N+]=NCC(O)COc1c2ccccc2nc2ccccc12 (stereo not given)
dose: 15.0 mg/kg/injection, schedule: Q01DX005 (ip), vehicle: saline with Tween-80
  T/C: 95 % of control
dose: 30.0 mg/kg/injection, schedule: Q01DX005 (ip), vehicle: saline with Tween-80
  T/C: 99 % of control
[10]
  T/C: 112 % of control

## CN(C)c1ccc(/C=C(/C#N)c2ccc(Cl)cc2)cc1
[7]
  T/C: 97 % of control
[8]
  T/C: 92 % of control
[9]
  T/C: 92 % of control
[13]
  T/C: 92 % of control

## CC(C)[C@]12O[C@H]1[C@@H]1O[C@]13[C@]1(O[C@H]1C[C@H]1C4=C(CC[C@@]13C)C(=O)OC4)[C@@H]2O
dose: 62.5 micrograms/kg/injection, schedule: Q01DX009 (ip), vehicle: saline with Tween-80
  T/C: 95 % of control
dose: 125.0 micrograms/kg/injection, schedule: Q01DX009 (ip), vehicle: saline with Tween-80
  T/C: 95 % of control
dose: 250.0 micrograms/kg/injection, schedule: Q01DX009 (ip), vehicle: saline with Tween-80
  T/C: 112 % of control

## CC(=O)OC(C(=O)CBr)C(OC(C)=O)C(OC(C)=O)C(=O)CBr (stereo not given)
dose: 12.5 mg/kg/injection, schedule: Q01DX009 (ip), vehicle: Klucel (hydroxypropylcellulose) (HPC)
  T/C: 114 % of control
dose: 25.0 mg/kg/injection, schedule: Q01DX009 (ip), vehicle: Klucel (hydroxypropylcellulose) (HPC)
  T/C: 96 % of control

## COc1ccc2c3c(ccc2c1)CC1CCCN1C3 (stereo not given)
dose: 50.0 mg/kg/injection, schedule: Q01DX005 (ip), vehicle: other
  T/C: 116 % of control
dose: 100.0 mg/kg/injection, schedule: Q01DX005 (ip), vehicle: other
  T/C: 104 % of control

## CC(C)N=c1sc(-c2ccccc2)c(C#N)c(=O)n1C(C)C
dose: 25.0 mg/kg/injection, schedule: Q01DX009 (ip), vehicle: saline with Tween-80
  T/C: 101 % of control
[14]
  T/C: 103 % of control
[1]
  T/C: 103 % of control

## NCc1c(Cl)c(Cl)c(CN)c(Cl)c1Cl
[14]
  T/C: 91 % of control
[7]
  T/C: 91 % of control
[1]
  T/C: 91 % of control
[8]
  T/C: 91 % of control
[9]
  T/C: 87 % of control

## S=c1sscc1-c1ccc2ccccc2c1
[9]
  T/C: 90 % of control
[13]
  T/C: 97 % of control

## O=C(Cn1ccc(=O)[nH]c1=O)N1CCOCC1
dose: 100.0 mg/kg/injection, schedule: Q04DX003 (ip), vehicle: water
  T/C: 100 % of control
dose: 200.0 mg/kg/injection, schedule: Q04DX003 (ip), vehicle: water
  T/C: 100 % of control
dose: 400.0 mg/kg/injection, schedule: Q04DX003 (ip), vehicle: water
  T/C: 100 % of control

## COC(=O)C(Cc1ccc(O)cc1)NC(=O)C(Cc1ccccc1)NC(C)=O (stereo not drawn) (Ac-Phe-Tyr-OMe; configuration not given here)
[2]
  T/C: 92 % of control
[3]
  T/C: 97 % of control
dose: 200.0 mg/kg/injection, schedule: Q01DX005 (ip), vehicle: Klucel (hydroxypropylcellulose) (HPC)
  T/C: 88 % of control

## O=C(CBr)CC(O)(C(F)(F)F)C(F)(F)F
dose: 3.0 mg/kg/injection, schedule: Q04DX003 (ip), vehicle: saline
  T/C: 100 % of control
dose: 6.0 mg/kg/injection, schedule: Q04DX003 (ip), vehicle: saline
  T/C: 100 % of control
dose: 12.0 mg/kg/injection, schedule: Q04DX003 (ip), vehicle: saline
  T/C: 91 % of control
